Results on 28 molecules are retold here after patent US7282507B2, “Indole derivatives as selective androgen receptor modulators (SARMS)” (Janssen Pharmaceutica N.V., priority 2004, dated 2007).

For test [1], the target named is T1, androgen receptor (rat ventral prostate cytosol) (Rattus norvegicus, UniProt P15207).
T1 construct: from tissue; host or cells: ventral prostate cytosol of castrated male Sprague Dawley or Wistar rats
T1 sequence (P15207 1-902): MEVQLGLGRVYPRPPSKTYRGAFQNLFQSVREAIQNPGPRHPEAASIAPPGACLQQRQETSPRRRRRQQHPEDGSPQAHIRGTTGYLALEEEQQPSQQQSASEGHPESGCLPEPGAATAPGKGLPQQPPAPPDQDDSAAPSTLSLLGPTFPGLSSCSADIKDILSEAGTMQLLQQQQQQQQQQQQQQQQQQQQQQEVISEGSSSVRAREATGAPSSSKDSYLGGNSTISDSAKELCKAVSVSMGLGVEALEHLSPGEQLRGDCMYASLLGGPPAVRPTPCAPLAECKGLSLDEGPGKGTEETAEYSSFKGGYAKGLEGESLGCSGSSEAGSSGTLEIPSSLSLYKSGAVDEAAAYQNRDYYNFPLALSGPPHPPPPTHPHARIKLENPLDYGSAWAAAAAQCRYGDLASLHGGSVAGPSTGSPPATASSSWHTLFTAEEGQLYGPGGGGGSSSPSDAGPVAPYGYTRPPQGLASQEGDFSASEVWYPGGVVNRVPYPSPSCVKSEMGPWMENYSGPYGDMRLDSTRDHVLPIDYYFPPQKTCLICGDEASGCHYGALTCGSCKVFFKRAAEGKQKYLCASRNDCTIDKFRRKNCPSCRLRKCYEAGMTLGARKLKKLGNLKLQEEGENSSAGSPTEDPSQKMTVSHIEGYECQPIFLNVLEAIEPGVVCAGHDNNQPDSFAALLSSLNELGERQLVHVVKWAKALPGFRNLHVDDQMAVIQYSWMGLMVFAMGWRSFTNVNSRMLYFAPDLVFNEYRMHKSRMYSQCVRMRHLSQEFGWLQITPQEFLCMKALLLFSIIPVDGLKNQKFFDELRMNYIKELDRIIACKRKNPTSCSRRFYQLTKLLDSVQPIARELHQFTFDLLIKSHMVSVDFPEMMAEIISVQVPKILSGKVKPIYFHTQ
The experiment in a line: Androgen Receptor Binding Using Rat Ventral Prostate Cytosol. As to conditions: for inhibition at 1 µM: read-out: % Inhibition, Androgen Receptor Binding (Rat Cytosol). A digest of the protocol:
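Cytosol from castrated rat ventral prostate was incubated overnight at 4°C with 0.5 nM [3H] tracer and compound in TED buffer (10 mM Tris-HCl pH 7.4, molybdate, EDTA, DTT, glycerol).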

Test [2] addresses T2, androgen receptor LBD (Panvera) (Rattus norvegicus, UniProt P15207).
T2 construct: 5 pmol androgen receptor LBD (Panvera); purchased Panvera
T2 sequence (P15207 651-882 limits assumed): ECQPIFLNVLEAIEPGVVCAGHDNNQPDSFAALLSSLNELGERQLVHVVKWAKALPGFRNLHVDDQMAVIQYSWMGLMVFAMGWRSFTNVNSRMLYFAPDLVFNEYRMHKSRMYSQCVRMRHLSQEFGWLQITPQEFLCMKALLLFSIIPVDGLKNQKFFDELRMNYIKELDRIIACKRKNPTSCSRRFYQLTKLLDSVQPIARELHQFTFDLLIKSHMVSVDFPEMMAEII
The experiment in a line: Androgen Receptor Filtration Binding Assay (PANVERA). How it is done:
The assay was run on a 96 well plate with each well filled with a total reaction volume 150 μL, of a solution containing 5 pmol androgen receptor LBD (Panvera) or 30 μL of freshly prepared rat cytosol, 0.5 nM [^3H] […] (TED buffer contains 10 mM Tris.HCl pH 7.4, 1 mM sodium molybdate, 1.5 mM EDTA, 1 mM DTT and 10% (v/v) glycerol.)
On day one, the solution containing receptor, tracer and TED buffer was distributed into a 96 well plate. Diluted test compound or control vehicle was then added to individual wells and the plate incubated at 4° C. overnight.
On day two, to each well was then added 20 μL human γ-globulin (ICN 823102), prepared at 25 mg/ml in TE pH 8.0, and 55 μL 40% polyethylene glycol 8000 (J T Baker U222-08), prepared in TE pH 8.0. The plate was incubated at 4° C. for 60 minutes. During incubation, the harvester was rinsed with 10% PEG 8000, prepared in TE pH 8.0, and a GF/C Unifilter-96 was pre-wet with 10% PEG. The binding reaction was filtered, the retentate was washed three times with 10% PEG and dried under vacuum for a couple of minutes, then dried at 50° C. for 5 min and the plate was bottom sealed. Next, 25 μL of Microscint-20 (Packard) was added to the filter wells and the plate was top sealed. The plate wells were then counted on a TopCount (Packard).
Counts per well were measured and IC50s determined by linear regression.

[3] abbreviates: [3H] R1881 tracer 0.5 nM, read-out: IC50 (nM), Androgen Receptor Binding (Panvera).
The mark [4] stands for this setting: read-out: IC50 (nM), Androgen Receptor Binding (Panvera).
The mark [5] stands for this setting: IC50 (nM), Androgen Receptor Binding (Panvera).
[6] abbreviates: read-out: IC50 (nM), Androgen Receptor Binding (Rat Cytosol).

Read-outs that look alike come from different tables or passages of the source. Some results are limits rather than exact numbers.

The inhibition is the relative decrease from the control value, in per cent. By IC50 is commonly meant the point on the concentration scale where inhibition reaches its midpoint.

For the molecule `CC(O)(CSc1ccccc1)c1cc2nc(C(F)(F)F)ccc2[nH]1` (racemic) [Compound 2], in test [1] (Concentration 1000 nM), the inhibition at 1 µM turned out to be 2.5%. Moreover, the IC50 in test [2] (setting [3]) was found to be 53000 nM.

Consider `CC(O)(COC(=O)c1ccccc1C(F)(F)F)c1cc2cc(N)c(C(F)(F)F)cc2[nH]1` (centres unmarked) [Compound 59], for which the results for the IC50 in test [1] and in test [2] (setting [4]) were 220 nM and 4100 nM, respectively. Further, the inhibition at 1 µM in test [1] amounted to 67.5%.

With `CC(O)(COC(=O)c1cccnc1)c1cc2cc(C#N)c(C(F)(F)F)cc2[nH]1` (centres unmarked) [Compound 79], in test [1] (Concentration 1000 nM), the inhibition at 1 µM turned out to be 48.5%. Also, the IC50 in test [2] (setting [3]) is over 9500 nM.

As for `CC(O)(CSc1ccc(F)cc1)c1cc2ccccc2[nH]1` (centres unmarked) [Compound 108], the inhibition at 1 µM in test [1] (Concentration 1000 nM) is 17.5%. Also, in test [2] (setting [3]), the IC50 turned out to be 7000 nM.

Turning to `CC(O)(COC(=O)c1ccc([N+](=O)[O-])cc1)c1cc2cc([N+](=O)[O-])c(C(F)(F)F)cc2[nH]1` (centres unmarked) [Compound 63], the inhibition at 1 µM in test [1] (Concentration 1000 nM) worked out at 47.5%. In test [2] (setting [3]), the IC50 worked out at 1550 nM.

Regarding `CC(O)(COC(=O)c1ccccc1)c1cc2cc([N+](=O)[O-])c(C(F)(F)F)cc2[nH]1` (centres unmarked) [Compound 64], the inhibition at 1 µM in test [1] (Concentration 1000 nM) was found to be 61.5%. Besides, the IC50 in test [2] (setting [3]) was determined as 815 nM.

In the case of `CN(C)c1ccc(C(=O)OCC(C)(O)c2cc3cc([N+](=O)[O-])c(C(F)(F)F)cc3[nH]2)cc1` (centres unmarked) [Compound 67], the inhibition at 1 µM in test [1] (Concentration 1000 nM) came to 25.5%. Besides, the IC50 in test [2] (setting [3]) turned out to be 3000 nM.

Take `CC(O)(CSc1ccc(F)cc1)c1cc2cc(C#N)c(C(F)(F)F)cc2[nH]1` (centres unmarked) [Compound 109]: the inhibition at 1 µM in test [1] (Concentration 1000 nM) is 49%. Further, in test [2] (setting [3]), the concentration for half-maximal inhibition (IC50) turned out to be 2600 nM.

With `CC(O)(CSc1ccc(Cl)cc1)c1cc2cc([N+](=O)[O-])c(C(F)(F)F)cc2o1` (racemic) [Compound 8], the inhibition at 1 µM in test [1] (Concentration 1000 nM) is -2%. Moreover, the IC50 in test [2] (setting [3]) amounted to 2650 nM.

Regarding `CC(O)(c1cc2cc(C#N)c(C(F)(F)F)cc2[nH]1)S(=O)(=O)c1ccc(Cl)cc1` (racemic) [Compound 262], the “% Inhibition, Androgen Receptor Binding (Rat Cytosol)” value (shortened to “% Inhibition”) in test [1] (Concentration 1000 nM) is −8.4%. Moreover, the IC50 in test [2] (setting [3]) is over 10000 nM.

On to `CC(O)(Sc1ccccc1)c1cc2cc([N+](=O)[O-])c(C(F)(F)F)cc2[nH]1` (racemic) [Compound 258], for which, in test [1] (Concentration 1000 nM), the “% Inhibition” value was 35.4%. The IC50 in test [2] (setting [3]) stood at 2450 nM.

With `Cc1ccc(C(=O)OCC(C)(O)c2cc3cc([N+](=O)[O-])c(C(F)(F)F)cc3[nH]2)cc1` (centres unmarked) [Compound 69], the inhibition at 1 µM in test [1] (Concentration 1000 nM) stood at 31%. Also, in test [2] (setting [3]), the IC50 was found to be 1200 nM.

Regarding `CC(O)(CSc1ccccc1)c1cc2cc(C#N)c(C(F)(F)F)cc2[nH]1` (centres unmarked) [Compound 95], in test [1] (Concentration 1000 nM), the inhibition at 1 µM worked out at 56.5%. For the same molecule, the IC50 in test [2] (setting [3]) turned out to be 3000 nM.

`CS(=O)(=O)n1c(C2(O)CCN(Cc3ccccc3)CC2)cc2cc(Cl)c(C(F)(F)F)cc21` [Compound 21]: the “% Inhibition” value in test [1] (Concentration 1000 nM) is recorded as −41.5%. For the same molecule, the IC50 in test [2] (setting [3]) is over 10200 nM.

Take `CC(O)(CSc1ccc(Cl)cc1)c1cc2cc(C#N)c(C(F)(F)F)cc2[nH]1` (centres unmarked) [Compound 96]: the “% Inhibition” value in test [1] (1 µM) is 59%. The inhibition at 1 µM in test [1] was 74%. Also, the IC50 in test [2] (setting [5]) was found to be 820 nM; in test [2] (setting [4]) it was 1710 nM.

`CC(O)(COC(=O)c1ccccc1Cl)c1cc2cc([N+](=O)[O-])c(C(F)(F)F)cc2[nH]1` (centres unmarked) [Compound 54]: the inhibition at 1 µM in test [1] was 5.5%. In addition, the IC50 in test [2] (setting [5]) was found to be 220 nM; in test [2] (setting [4]), 465 nM.

For the molecule `CC(O)(COC(=O)c1ccc(Cl)cc1)c1cc2cc(C#N)c(C(F)(F)F)cc2[nH]1` (centres unmarked) [Compound 76], in test [1] (Concentration 1000 nM), the inhibition at 1 µM is -30.5%. Besides, in test [2] (setting [3]), the IC50 came out at 1240 nM.

As for `CS(=O)(=O)n1c(C2(O)CCN(C(=O)OCc3ccccc3)CC2)cc2cc(Cl)c(C(F)(F)F)cc21` [Compound 19], the “% Inhibition” value in test [1] (Concentration 1000 nM) was −55%. In addition, the IC50 in test [2] (setting [3]) was over 100000 nM.

Regarding `CC(O)(Sc1ccc(Cl)cc1)c1cc2cc(C#N)c(C(F)(F)F)cc2[nH]1` (racemic) [Compound 261], the “% Inhibition” value in test [1] (Concentration 1000 nM) is 14.05%. In test [2] (setting [3]), the IC50 turned out to be 1460 nM.

For the molecule `CC(O)(CSc1ccc(Cl)cc1)c1cc2cc(Cl)ccc2n1S(C)(=O)=O` (centres unmarked) [Compound 101], in test [1] (Concentration 1000 nM), the inhibition at 1 µM was -24.9%. Moreover, in test [2] (setting [3]), the IC50 amounted to 3850 nM.

Take `CC(O)(C[S+]([O-])c1ccc(Cl)c(Cl)c1)c1cc2cc(Cl)c(C(F)(F)F)cc2[nH]1` (centres unmarked) [Compound 117]: the “% Inhibition” value in test [1] (Concentration 1000 nM, 1 µM) is listed as 32.5%. Further, the IC50 in test [2] (setting [3]) was determined as 2000 nM.

Consider `CC(O)(CSc1ccc(F)cc1)c1cc2cc(Cl)ccc2n1S(C)(=O)=O` (centres unmarked) [Compound 99], for which the inhibition at 1 µM in test [1] (Concentration 1000 nM) worked out at 8.5%. Further, in test [2] (setting [3]), the IC50 is 5750 nM.

As to `O=C(OCc1ccccc1)N1CCC(O)(c2cc3cc(Cl)c(C(F)(F)F)cc3[nH]2)CC1` [Compound 20], in test [1] (Concentration 1000 nM), the inhibition at 1 µM is -28.5%. The 50% inhibitory concentration (IC50) in test [2] (setting [3]) was determined as 23500 nM.

As for `CC(O)(CSc1ccccc1Cl)c1cc2cc(Cl)c(C(F)(F)F)cc2[nH]1` (centres unmarked) [Compound 84], in test [1] (Concentration 1000 nM), the inhibition at 1 µM was 86%. The IC50 stood at 240 nM in test [1] (setting [6]) and 180 nM in test [2] (setting [3]).

As to `COc1ccc(C(=O)OCC(C)(O)c2cc3cc([N+](=O)[O-])c(C(F)(F)F)cc3[nH]2)cc1` (centres unmarked) [Compound 65], in test [1] (Concentration 1000 nM), the inhibition at 1 µM came to 47.5%. Further, in test [2] (setting [3]), the IC50 is 945 nM.

On to `COC(=O)c1ccc2[nH]c(C(C)(O)CSc3ccc(Cl)cc3)cc2c1` (centres unmarked) [Compound 97], for which the inhibition at 1 µM in test [1] (Concentration 1000 nM) turned out to be 25%. In addition, the IC50 in test [2] (setting [3]) is 7400 nM.

Take `CS(=O)(=O)n1c(C2(O)CCNCC2)cc2cc(Cl)c(C(F)(F)F)cc21` [Compound 23]: the “% Inhibition” value in test [1] (Concentration 1000 nM) is −1.5%. In addition, the figures for the IC50 in test [1] (setting [6]) and in test [2] (setting [3]) were 6000 nM and 54000 nM, respectively.

Regarding `CC(O)(CSc1ccc(F)cc1)c1cc2cc(Cl)ccc2[nH]1` (centres unmarked) [Compound 100], in test [1] (Concentration 1000 nM), the inhibition at 1 µM stood at 80%. Further, in test [2] (setting [3]), the half-maximal inhibitory concentration (IC50) amounted to 1160 nM.
